{"source": "patent US20100120762A1", "about": "“Triazine derivatives as inhibitors of phosphodiesterases” (WYETH, priority 2008, published 2010)", "key": {"[1]": {"target": "T1, PDE2A (NM002599) (Homo sapiens, UniProt O00408)", "T1 construct": "made in house; host or cells: baculovirus / SF21 insect cells", "T1 sequence (O00408 whole entry)": "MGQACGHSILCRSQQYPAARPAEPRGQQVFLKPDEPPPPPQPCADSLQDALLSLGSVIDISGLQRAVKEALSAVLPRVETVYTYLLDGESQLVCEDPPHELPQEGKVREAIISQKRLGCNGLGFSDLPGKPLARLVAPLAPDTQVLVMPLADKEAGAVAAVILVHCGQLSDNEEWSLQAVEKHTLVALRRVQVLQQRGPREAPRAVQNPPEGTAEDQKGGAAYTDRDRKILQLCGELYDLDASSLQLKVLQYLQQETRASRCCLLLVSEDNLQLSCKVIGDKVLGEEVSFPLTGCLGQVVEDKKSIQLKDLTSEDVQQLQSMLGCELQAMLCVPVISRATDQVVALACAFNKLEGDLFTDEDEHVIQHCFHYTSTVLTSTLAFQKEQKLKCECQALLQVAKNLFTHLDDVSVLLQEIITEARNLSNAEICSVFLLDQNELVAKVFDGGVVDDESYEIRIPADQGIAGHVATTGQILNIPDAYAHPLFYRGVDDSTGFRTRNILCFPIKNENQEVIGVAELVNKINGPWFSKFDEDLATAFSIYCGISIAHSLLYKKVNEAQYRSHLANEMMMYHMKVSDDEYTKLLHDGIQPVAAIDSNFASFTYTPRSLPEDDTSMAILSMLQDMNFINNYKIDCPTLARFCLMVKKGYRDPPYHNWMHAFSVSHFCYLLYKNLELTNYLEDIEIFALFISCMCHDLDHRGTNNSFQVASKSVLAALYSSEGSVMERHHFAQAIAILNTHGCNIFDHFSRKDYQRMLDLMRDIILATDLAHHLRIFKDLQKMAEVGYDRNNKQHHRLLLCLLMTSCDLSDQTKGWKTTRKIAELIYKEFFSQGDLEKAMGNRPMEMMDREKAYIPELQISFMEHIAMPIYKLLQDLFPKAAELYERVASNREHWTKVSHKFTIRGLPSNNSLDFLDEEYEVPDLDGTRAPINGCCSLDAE", "test": "Inhibition of recombinant PDE2A (expressed in baculovirus/SF21-cells)", "format": "biochemical", "conditions": "recombinant PDE2A, 0.5 μM [3H]-cAMP, 1000 nM cGMP, 37° C., 30 minutes, SPA; read-out: PDE2A IC50", "how_it_was_run": "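Membrane fraction from SF21 cells, assayed in 50 mM Tris-HCl/5 mM MgCl2 (pH 7.4) with 0.5 μM [3H]-cAMP plus 1000 nM cGMP as stimulator; non-specific activity was measured without cGMP. Reaction ran 30 min at 37° C, was stopped with SPA beads and read by scintillation counting. IC50 came from a Hill-plot 2-parameter model.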"}, "[2]": {"target": "T2, PDE10A1 (AB 020593) (Homo sapiens, UniProt Q9Y233)", "T2 construct": "made in house; host or cells: baculovirus / SF21 insect cells (gene synthesized by Entelechon GmbH)", "T2 sequence (Q9Y233 other isoform, or with tags, fused parts or gaps)": "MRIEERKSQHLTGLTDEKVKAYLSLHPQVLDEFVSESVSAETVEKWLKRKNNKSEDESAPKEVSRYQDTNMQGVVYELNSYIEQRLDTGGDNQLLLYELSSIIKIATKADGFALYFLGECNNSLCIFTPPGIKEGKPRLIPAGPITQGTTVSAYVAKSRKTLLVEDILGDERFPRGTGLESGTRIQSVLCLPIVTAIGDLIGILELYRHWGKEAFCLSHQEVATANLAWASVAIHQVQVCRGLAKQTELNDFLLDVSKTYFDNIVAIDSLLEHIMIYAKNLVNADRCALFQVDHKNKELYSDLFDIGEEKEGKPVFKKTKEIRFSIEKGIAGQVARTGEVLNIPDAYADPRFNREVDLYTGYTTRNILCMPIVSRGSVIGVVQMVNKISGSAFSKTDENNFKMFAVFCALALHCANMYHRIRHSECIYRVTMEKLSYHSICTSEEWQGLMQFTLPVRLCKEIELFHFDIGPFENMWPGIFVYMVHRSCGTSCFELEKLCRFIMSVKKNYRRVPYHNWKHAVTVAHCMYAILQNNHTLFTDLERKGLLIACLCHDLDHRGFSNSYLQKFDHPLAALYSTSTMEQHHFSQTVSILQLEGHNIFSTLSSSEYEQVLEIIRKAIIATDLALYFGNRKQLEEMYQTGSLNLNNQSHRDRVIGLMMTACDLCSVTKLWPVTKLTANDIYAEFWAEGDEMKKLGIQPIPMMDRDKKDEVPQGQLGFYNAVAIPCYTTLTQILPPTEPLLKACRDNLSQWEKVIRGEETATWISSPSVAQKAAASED", "test": "Inhibition of recombinant PDE10A (baculovirus/SF21 system)", "format": "biochemical", "conditions": "recombinant cytosolic PDE10A, 0.1 μM [3H]-cAMP, 37° C., 30 minutes, SPA; read-out: PDE10A IC50", "how_it_was_run": "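Cytosolic PDE10A1 expressed in SF21 cells via baculovirus, incubated with 0.1 μM [3H]-cAMP in 50 mM Tris-HCl/5 mM MgCl2, pH 7.4, 30 min at 37 °C. SPA-bead scintillation read-out, with enzyme-free wells as background. IC50 from Hill plot, 2-parameter model.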"}}}
{"smiles": "COc1ccc2nnc3c(C)nc(-c4cccc(F)c4Cl)n3c2n1", "note": "[Example 91, 9-(2-chloro-3-fluorophenyl)-2-methoxy-7-methylimidazo[5,1-c]pyrido[2,3-e][1,2,4]triazine]", "values": [{"measurement": "IC50", "setting": "[1]", "result": 0.0173, "unit": "µM"}, {"measurement": "IC50", "setting": "[2]", "result": 0.0118, "unit": "µM"}]}
{"smiles": "COc1ccc2nnc3c(C)nc(-c4ccc(Cl)c(Cl)c4)n3c2n1", "note": "[Example 92, 9-(3,4-dichlorophenyl)-2-methoxy-7-methylimidazo[5,1-c]pyrido[2,3-e][1,2,4]triazine]", "values": [{"measurement": "IC50", "setting": "[1]", "result": 0.66, "unit": "µM"}, {"measurement": "IC50", "setting": "[2]", "result": 0.231, "unit": "µM"}]}
{"smiles": "COc1ccc2nnc3c(C)nc(-c4cccc(Cl)c4)n3c2n1", "note": "[Example 93, 9-(3-chlorophenyl)-2-methoxy-7-methylimidazo[5,1-c]pyrido[2,3-e][1,2,4]triazine]", "values": [{"measurement": "IC50", "setting": "[1]", "result": 0.0458, "unit": "µM"}, {"measurement": "IC50", "setting": "[2]", "result": 0.0468, "unit": "µM"}]}
{"smiles": "COc1ccc2nnc3c(C)nc(-c4cccc(Cl)c4C)n3c2n1", "note": "[Example 94, 9-(3-chloro-2-methylphenyl)-2-methoxy-7-methylimidazo[5,1-c]pyrido[2,3-e][1,2,4]triazine]", "values": [{"measurement": "IC50", "setting": "[1]", "result": 0.0895, "unit": "µM"}, {"measurement": "IC50", "setting": "[2]", "result": 0.0692, "unit": "µM"}]}
{"smiles": "COc1ccc2nnc3c(C)nc(-c4ccc(OC)c(Cl)c4)n3c2n1", "note": "[Example 95, 9-(3-chloro-4-methoxyphenyl)-2-methoxy-7-methylimidazo[5,1-c]pyrido[2,3-e][1,2,4]triazine]", "values": [{"measurement": "IC50", "setting": "[1]", "result": 0.772, "unit": "µM"}, {"measurement": "IC50", "setting": "[2]", "result": "> 0.5", "unit": "µM"}]}
{"smiles": "COc1ccc2nnc3c(C)nc(-c4ccc(F)c(Cl)c4)n3c2n1", "note": "[Example 96, 9-(3-chloro-4-fluorophenyl)-2-methoxy-7-methylimidazo[5,1-c]pyrido[2,3-e][1,2,4]triazine]", "values": [{"measurement": "IC50", "setting": "[1]", "result": 0.0737, "unit": "µM"}, {"measurement": "IC50", "setting": "[2]", "result": 0.216, "unit": "µM"}]}
{"smiles": "COc1ccc2nnc3c(C)nc(-c4cc(Cl)cc(Cl)c4)n3c2n1", "note": "[Example 97, 9-(3,5-dichlorophenyl)-2-methoxy-7-methylimidazo[5,1-c]pyrido[2,3-e][1,2,4]triazine]", "values": [{"measurement": "IC50", "setting": "[1]", "result": 0.46, "unit": "µM"}, {"measurement": "IC50", "setting": "[2]", "result": 0.329, "unit": "µM"}]}
{"smiles": "COc1ccc2nnc3c(C)nc(-c4cc(Cl)ccc4OC)n3c2n1", "note": "[Example 98, 9-(5-chloro-2-methoxyphenyl)-2-methoxy-7-methylimidazo[5,1-c]pyrido[2,3-e][1,2,4]triazine]", "values": [{"measurement": "IC50", "setting": "[1]", "result": 0.0629, "unit": "µM"}, {"measurement": "IC50", "setting": "[2]", "result": 0.0869, "unit": "µM"}]}
{"smiles": "COc1ccc2nnc3c(C)nc(-c4cc(Cl)ccc4C(F)(F)F)n3c2n1", "note": "[Example 99, 9-[5-chloro-2-(trifluoromethyl)phenyl]-2-methoxy-7-methylimidazo[5,1-c]pyrido[2,3-e][1,2,4]triazine]", "values": [{"measurement": "IC50", "setting": "[1]", "result": 0.0796, "unit": "µM"}, {"measurement": "IC50", "setting": "[2]", "result": 0.732, "unit": "µM"}]}
{"smiles": "COc1ccc(C)c(-c2nc(C)c3nnc4ccc(OC)nc4n23)c1", "note": "[Example 100, 2-methoxy-9-(5-methoxy-2-methylphenyl)-7-methylimidazo[5,1-c]pyrido[2,3-e][1,2,4]triazine]", "values": [{"measurement": "IC50", "setting": "[1]", "result": 0.00552, "unit": "µM"}, {"measurement": "IC50", "setting": "[2]", "result": 0.0556, "unit": "µM"}]}
{"smiles": "COc1ccc2nnc3c(C)nc(-c4ccccc4C)n3c2n1", "note": "[Example 101, 2-methoxy-7-methyl-9-o-tolylimidazo[5,1-c]pyrido[2,3-e][1,2,4]triazine]", "values": [{"measurement": "IC50", "setting": "[1]", "result": 0.0158, "unit": "µM"}, {"measurement": "IC50", "setting": "[2]", "result": 0.0461, "unit": "µM"}]}
{"smiles": "COc1ccc2nnc3c(C)nc(-c4ccccc4C(F)(F)F)n3c2n1", "note": "[Example 102, 9-[2-(trifluoromethyl)phenyl]-2-methoxy-7-methylimidazo[5,1-c]pyrido[2,3-e][1,2,4]triazine]", "values": [{"measurement": "IC50", "setting": "[1]", "result": 0.0486, "unit": "µM"}, {"measurement": "IC50", "setting": "[2]", "result": 0.0968, "unit": "µM"}]}
{"smiles": "COc1ccc2nnc3c(C)nc(-c4ccccc4C(N)=O)n3c2n1", "note": "[Example 103, 2-(2-methoxy-7-methylimidazo[5,1-c]pyrido[2,3-e][1,2,4]triazin-9-yl)benzamide]", "values": [{"measurement": "IC50", "setting": "[1]", "result": 0.806, "unit": "µM"}, {"measurement": "IC50", "setting": "[2]", "result": 1.41, "unit": "µM"}]}
{"smiles": "COc1ccc2nnc3c(C)nc(-c4ccccc4Oc4ccccc4)n3c2n1", "note": "[Example 105, 8-Methoxy-3-methyl-1-(2-phenoxy-phenyl)-imidazo[5,1-c]pyrido[2,3-e][1,2,4]triazine]", "values": [{"measurement": "IC50", "setting": "[1]", "result": 0.0617, "unit": "µM"}, {"measurement": "IC50", "setting": "[2]", "result": 0.817, "unit": "µM"}]}
{"smiles": "COc1ccnc2c1nnc1c(C)nc(-c3cc(Cl)ccc3Cl)n12", "note": "[Example 113, 9-(2,5-dichlorophenyl)-4-methoxy-7-methylimidazo[5,1-c]pyrido[2,3-e][1,2,4]triazine]", "values": [{"measurement": "IC50", "setting": "[1]", "result": 0.171, "unit": "µM"}, {"measurement": "IC50", "setting": "[2]", "result": 0.00301, "unit": "µM"}]}
